Marks after values point to notes of the source that are not given here.
Assay: Plasma pharmacokinetics, Arm II (oral BID), phase 1 trial
Format: in vivo, human
Procedure: Pharmacokinetics of ilorasertib were evaluated in the dose-escalation cohort on blood samples that were collected on cycle 1 days 1 and 15. Parameters determined: Cmax, time to Cmax (Tmax), terminal phase elimination half-life (t1/2), clearance, apparent oral clearance (CL/F), and area under the plasma concentration-time curve from time 0 to time of last measurable concentration (AUCt) and from time 0 to infinity (AUC∞). For Arm I, blood samples were collected prior to dosing and at 0.5, 1, 2, 3, 4, 6, 8, 10 or 12, and 24 h after dosing on cycle 1 days 1 and 15; of note, for institutions not able to collect the 10- or 12-h post-dose sample, the 24-h sample was replaced with 22-h and 28-h post-dose samples. In Arm II, for the first dose, blood samples were collected pre-dose and at 1, 2, 3, and 4 h post-dose on cycle 1 days 1 and 15; for the second dose, samples were collected pre-dose and at 1, 2, 3, 4, 18, and 24 h after second dose on cycle 1 days 1 and 15. In Arm III, blood samples were collected prior to infusion, at 1 h 55 min (just before end of infusion), and at 0.5, 1, 2, 4, 6, 8, 10, and 24 h after end of infusion on cycle 1 days 1 and 15; here also, for institutions not able to collect the 8-h or 10-h after-end-of-infusion samples, the 24-h sample was replaced with 22-h and 28-h post-dose samples. The liquid chromatography (LC)-mass spectrometry (MS)/MS method was developed and validated in the Bioanalysis Department of AbbVie. Fifty microliter of human plasma (K2EDTA as anticoagulant) was fortified with 300 μL of deuterium-stable labelled internal standard and mixed well. A HybridSPE precipitation plate (50 mg/96 wells, Supelco Analytical, Munich, Germany) was used to directly load and elute (under slight vacuum) the fortified samples into a clean collection plate. Samples were dried before reconstitution with 100 μL of 20/80 (v/v) acetonitrile/water, and injected for LC-MS/MS analysis. A Halo C8 (Wilmington, DE, USA; 2.7 μm, 2.1 × 30 mm) was used on an Agilent 1290 Infinity UPLC pump (Agilent Technologies, Santa Clara, CA) to carry out the separation. An isocratic condition with 25/75/0.1 (v/v/v) acetonitrile/water/98% formic acid was used as the mobile phase. The flow rate was set to be 0.6 mL/min. An MPS 3 C ([…] Ruhr, Germany) autosampler was used to introduce samples onto the UPLC system. An API 4000 mass spectrometer (Applied Biosystems, Foster City, CA) was used in the multiple reactions monitoring mode for the detection and quantitation of analyte. Descriptive statistics were used for demographic variables. The numbers and percentages of patients with treatment-emergent AEs (TEAEs) were tabulated using the Medical Dictionary for Regulatory Activities version 16.0 system organ class and preferred term, and further classified according to CTCAE version 4.0 criteria. The safety data set included all patients who received one or more doses of ilorasertib. The pharmacokinetic data set included all patients who received one or more doses of ilorasertib and had one or more pharmacokinetic samples. Values for pharmacokinetic parameters were determined using non-compartmental methods, with data analysed separately for each arm. A repeated measures analysis was performed for Tmax and dose-normalised Cmax, AUCt, and AUC∞. The model included random effects for patient and fixed effects for dose level, day, and the interaction of dose level and day. To assess effects of exposure on pharmacodynamic biomarkers, Cmax was employed as the directly measured marker of exposure for the rapid changes in DBP and PlGF pre-steady-state, while AUC∞ reflected exposure variability at the time of post-multiple-dose skin biopsy. Descriptive statistics were used to summarise ECOG performance status. The efficacy data set included all patients who received one or more doses of ilorasertib.

[1] = Arm II PO BID 40 mg, day 1, N=2, mean (individual)
[2] = Arm II PO BID 40 mg, day 15, N=3
[3] = Arm II PO BID 60 mg, day 1, N=3
[4] = Arm II PO BID 60 mg, day 15, N=1
[5] = Arm II PO BID 60 mg, day 15, N=3
[6] = Arm II PO BID 90 mg, day 1, N=2, mean (individual)
[7] = Arm II PO BID 90 mg, day 1, N=3
[8] = Arm II PO BID 90 mg, day 15, N=2, mean (individual)
[9] = Arm II PO BID 90 mg, day 15, N=3
[10] = Arm II PO BID 130 mg, day 1, N=3
[11] = Arm II PO BID 130 mg, day 1, N=4
[12] = Arm II PO BID 130 mg, day 15, N=1
[13] = Arm II PO BID 130 mg, day 15, N=3
[14] = Arm II PO BID 190 mg, day 1, N=4
[15] = Arm II PO BID 190 mg, day 1, N=7
[16] = Arm II PO BID 190 mg, day 15, N=2, mean (individual)
[17] = Arm II PO BID 190 mg, day 15, N=5
[18] = Arm II PO BID 230 mg, day 1, N=2, mean (individual)
[19] = Arm II PO BID 230 mg, day 1, N=3
[20] = Arm II PO BID 230 mg, day 15, N=1
[21] = Arm II PO BID 230 mg, day 15, N=4
[22] = Arm II PO BID 340 mg, day 1, N=1
[23] = Arm II PO BID 340 mg, day 1, N=3
[24] = Arm II PO BID 340 mg, day 15, N=1
[25] = Arm II PO BID all doses, day 1, N=14
[26] = Arm II PO BID all doses, day 1, N=26
[27] = Arm II PO BID all doses, day 15, N=7
[28] = Arm II PO BID all doses, day 15, N=22

In the case of Nc1ncc(-c2cnn(CCO)c2)c2scc(-c3ccc(NC(=O)Nc4cccc(F)c4)cc3)c12 [ilorasertib, Ilorasertib], the “AUC∞/dose” value [1] is reported as 49.9 (35.6, 64.1)^b ng•h/mL/mg, the CL/F [1] is reported as 21.8 (28.1, 15.6)^b L/h and the AUCt/dose (Arm II PO BID 40 mg, day 1, N=3) is reported as 46.5 ± 20.5 ng·h/mL/mg. It also gave an AUCt/dose [2] of 46.9 ± 25.6 ng·h/mL/mg, a Cmax/dose [2] of 2.4 ± 1.3 ng/mL/mg and an AUCt/dose [3] of 45.4 ± 12.2 ng·h/mL/mg. The Cmax/dose [3] was 3.2 ± 1.2 ng/mL/mg, the “AUC∞/dose” value [4] was 45.3^b ng•h/mL/mg and the CL/F [4] was 22.1^b L/h. The AUCt/dose [5] was 24.3 ± 5.9 ng·h/mL/mg, the Cmax/dose [5] was 1.9 ± 0.47 ng/mL/mg and the “AUC∞/dose” value [6] was 22.4 (14.1, 30.6)^b ng•h/mL/mg. The CL/F [6] was 51.7 (70.7, 32.6)^b L/h, the AUCt/dose [7] was 21.8 ± 8.5 ng·h/mL/mg and the Cmax [7] was 0.30 ± 0.1 µg/mL. For the same molecule, the Cmax/dose [7] was 1.7 ± 0.6 ng/mL/mg, the “AUC∞/dose” value [8] was 29.6 (41.1, 18.1)^c ng•h/mL/mg and the CL/F [8] was 39.8 (24.3, 55.2)^c L/h. For the same molecule, the “t1/2 (harmonic mean)” value [8] was 16.2 (23.4, 12.4)^c h, the AUCt/dose [9] was 22.5 ± 8.4 ng·h/mL/mg and the Cmax/dose [9] was 1.8 ± 0.54 ng/mL/mg. The “AUC∞/dose” value [10] was 25.1 ± 17.2^c ng•h/mL/mg, the CL/F [10] was 51.5 ± 25.9^c L/h and the AUCt/dose [11] was 19.5 ± 12.2 ng·h/mL/mg. For the same molecule, the Cmax/dose [11] was 2.3 ± 1.5 ng/mL/mg, the “AUC∞/dose” value [12] was 15.2^b ng•h/mL/mg and the CL/F [12] was 65.7^b L/h. For the same molecule, the AUCt/dose [13] was 9.2 ± 5.0 ng·h/mL/mg, the Cmax/dose [13] was 1.0 ± 1.1 ng/mL/mg and the “AUC∞/dose” value [14] was 46.8 ± 29.7^d ng•h/mL/mg. The CL/F [14] was 29.6 ± 17.9^d L/h, the “t1/2 (harmonic mean)” value [14] was 13.7 ± 9.0^d h and the AUCt [15] was 8.10 ± 4.44 µg·h/mL. The AUCt/dose [15] was 21.3 ± 11.7 ng·h/mL/mg, the Cmax/dose [15] was 1.4 ± 0.8 ng/mL/mg and the “AUC∞/dose” value [16] was 28.0 (20.9, 35.2)^c ng•h/mL/mg. For the same molecule, the CL/F [16] was 38.1 (47.8, 28.4)^c L/h, the AUCt/dose [17] was 17.6 ± 13.7 ng·h/mL/mg and the Cmax/dose [17] was 1.7 ± 1.0 ng/mL/mg. The “AUC∞/dose” value [18] was 19.9 (18.1, 21.7)^b ng•h/mL/mg, the CL/F [18] was 50.8 (55.4, 46.1)^b L/h and the AUCt/dose [19] was 21.9 ± 7.9 ng·h/mL/mg. The Cmax/dose [19] was 1.5 ± 0.5 ng/mL/mg, the “AUC∞/dose” value [20] was 28.2^b ng•h/mL/mg and the CL/F [20] was 35.5^b L/h. For the same molecule, the AUCt/dose [21] was 24.4 ± 9.4 ng·h/mL/mg, the Cmax/dose [21] was 1.7 ± 1.0 ng/mL/mg and the “AUC∞/dose” value [22] was 145^e ng•h/mL/mg. For the same molecule, the CL/F [22] was 6.9^e L/h, the AUCt/dose [23] was 57.8 ± 21.8 ng·h/mL/mg and the Cmax/dose [23] was 3.0 ± 1.3 ng/mL/mg. The AUCt/dose [24] was 23.0 ng·h/mL/mg, the Cmax/dose [24] was 1.1 ng/mL/mg and the “AUC∞/dose” value [25] was 42.3 ± 36.5^f ng•h/mL/mg. The CL/F [25] was 37.7 ± 21.8^f L/h, the “t1/2 (harmonic mean)” value [25] was 13.0 ± 6.2^f h and the AUCt/dose [26] was 31.1 ± 18.8 ng·h/mL/mg. The Cmax/dose [26] was 2.2 ± 1.2 ng/mL/mg, the “AUC∞/dose” value [27] was 29.1 ± 11.7^d ng•h/mL/mg and the CL/F [27] was 39.9 ± 16.7^d L/h. The “t1/2 (harmonic mean)” value [27] was 9.9 ± 3.7^d h, the AUCt/dose [28] was 23.5 ± 15.5 ng·h/mL/mg and the Cmax/dose [28] was 1.7 ± 0.9 ng/mL/mg.

Reference: PMC5931107, “Clinical pharmacodynamic/exposure characterisation of the multikinase inhibitor ilorasertib (ABT-348) in a phase 1 dose-escalation trial” (British Journal of Cancer, 2018)
